The record followed here is US5750509A, “Amide derivatives of antibiotic A 40926” (Gruppo Lepetit S.p.A., priority 1991, dated 1998).

The test system of one assay is Entero. faecalis L 562. As to the kind of experiment: MIC, microbroth dilution, Entero. faecalis L 562. The class given is cell-based, Enterococcus faecalis. On the technique in general: Broth dilution looks for growth in wells or tubes with falling amounts of substance.
Assay [1] deals with Enterococcus faecium L 564. As to the kind of experiment: MIC, glycopeptide-resistant Enterococcus faecium L 564. The class given is cell-based.
The test system of assay [2] is Enterococcus faecium L 565. Briefly: MIC, glycopeptide-resistant Enterococcus faecium L 565. The class given is cell-based.
Assay [3] concerns Enterococcus faecium L 569. As to the kind of experiment: MIC, glycopeptide-resistant Enterococcus faecium L 569. The class given is cell-based.
The test system of assay [4] is Enterococcus faecium L 1650. As to the kind of experiment: MIC, glycopeptide-resistant Enterococcus faecium L 1650. The class given is cell-based.
The subject of assay [5] is Enterococcus faecium L 1652. As to the kind of experiment: MIC, glycopeptide-resistant Enterococcus faecium L 1652. It counts as cell-based.
Assay [6] relates to Enterococcus faecium L 1666. As to the kind of experiment: MIC, glycopeptide-resistant Enterococcus faecium L 1666. It counts as cell-based.
The subject of assay [7] is Enterococcus faecium L 1680. Briefly: MIC, glycopeptide-resistant Enterococcus faecium L 1680. The class given is cell-based.
The test system of assay [8] is Enterococcus faecium L 1681. As to the kind of experiment: MIC, glycopeptide-resistant Enterococcus faecium L 1681. It counts as cell-based.
In assay [9] the test system is Enterococcus faecium L 1683. As to the kind of experiment: MIC, glycopeptide-resistant Enterococcus faecium L 1683. The class given is cell-based.
For assay [10], the system named is Enterococcus faecium L 1686. Briefly: MIC, glycopeptide-resistant Enterococcus faecium L 1686. It counts as cell-based.
The subject of assay [11] is highly glycopeptide-resistant enterococci. As to the kind of experiment: in vitro activity against highly glycopeptide-resistant enterococci (summary). The class given is cell-based.
The next assay concerns Staph. aureus L 165. Briefly: MIC, microbroth dilution, Staph. aureus L 165. It counts as cell-based. The following applies: Table II.
A further assay deals with Staph. aureus L 561. As to the kind of experiment: MIC, microbroth dilution, Staph. aureus L 561. The class given is cell-based. As to conditions: Table II.
Another assay concerns Staph. epidermidis L 147. Briefly: MIC, microbroth dilution, Staph. epidermidis L 147. The class given is cell-based. The following applies: Table II.
The subject of the next assay is Staph. epidermidis L 533. Briefly: MIC, microbroth dilution, Staph. epidermidis L 533. The class given is cell-based. The following applies: Table II.
Assay [12] deals with Staph. haemolyticus L 602. Briefly: MIC, microbroth dilution, Staph. haemolyticus L 602. It counts as cell-based. The following applies: Table II.
The next assay deals with Strep. pyogenes L 49. As to the kind of experiment: MIC, microbroth dilution, Strep. pyogenes L 49. As to conditions: Table II. It counts as cell-based.
The test system of a further assay is Strep. pneumoniae L 44. Briefly: MIC, microbroth dilution, Strep. pneumoniae L 44. The class given is cell-based. The following applies: Table II.
In a further assay the test system is Entero. faecalis L 149. Briefly: MIC, microbroth dilution, Entero. faecalis L 149. The following applies: Table II. The class given is cell-based.
In a further assay the test system is Neisseria gonorrh. L 997. Briefly: MIC, microbroth dilution, Neisseria gonorrh. L 997. The following applies: Table II. The class given is cell-based, Neisseria gonorrhoeae.
The subject of a further assay is Esch. coli L 47. As to the kind of experiment: MIC, microbroth dilution, Esch. coli L 47. The class given is cell-based. As to conditions: Table II.
The subject of the next assay is Pseudomonas aerug. L 4. Briefly: MIC, microbroth dilution, Pseudomonas aerug. L 4. The class given is cell-based. The following applies: Table II.
A further assay concerns Proteus vulgaris L 79. As to the kind of experiment: MIC, microbroth dilution, Proteus vulgaris L 79. The class given is cell-based. The following applies: Table II.
Assay [13] deals with Enterococcus faecalis L 560. Briefly: MIC, glycopeptide-resistant Enterococcus faecalis L 560. The class given is cell-based. As to conditions: Table III.
The subject of assay [14] is Enterococcus faecalis L 563. As to the kind of experiment: MIC, glycopeptide-resistant Enterococcus faecalis L 563. The class given is cell-based. The following applies: Table III.
Another assay relates to Strep. pyogenes C 203. As to the kind of experiment: experimental streptococcal septicemia in mice. It counts as in vivo. The following applies: Strep. pyogenes C 203 septicemia, adm. route sc. The text has this: The experiments have been carried out according to the procedure described by V. Arioli et al., Journal of Antibiotics 29, 511 (1976).

Consider `CN[C@H](CC(C)C)C(=O)N[C@H]1C(=O)N[C@@H](CC(N)=O)C(=O)N[C@H]2C(=O)N[C@H]3C(=O)N[C@H](C(=O)N[C@H](C(=O)O)c4cc(O)cc(O)c4-c4cc3ccc4O)[C@H](O)c3ccc(c(Cl)c3)Oc3cc2cc(c3O[C@@H]2O[C@H](CO)[C@@H](O)[C@H](O)[C@H]2O[C@H]2C[C@](C)(N)[C@H](O)[C@H](C)O2)Oc2ccc(cc2Cl)[C@H]1O` [VANCOMYCIN, vancomycin], for which the MIC with Entero. faecalis L 562 (Enterococcus faecalis, L562) is over 128 µg/mL; in assay [1] (Enterococcus faecium, L564) it was over 128 µg/mL; in assay [2] (Enterococcus faecium, L565), over 128 µg/mL; in assay [3] (Enterococcus faecium, L569) it was over 128 µg/mL; in [4] (Enterococcus faecium, L1650), over 128 µg/mL; in assay [5] (Enterococcus faecium, L1652), over 128 µg/mL. Also, the MIC is over 128 µg/mL in [6] (Enterococcus faecium, L1666); over 128 µg/mL in [7] (Enterococcus faecium, L1680); over 128 µg/mL in [8] (Enterococcus faecium, L1681); over 128 µg/mL in assay [9] (Enterococcus faecium, L1683); over 128 µg/mL in assay [10] (Enterococcus faecium, L1686). Also, in assay [11], the “in vitro activity / resistance in words” value is listed as “highly resistant”.

With teicoplanin, the MIC in the assay with Staph. aureus L 165 came out at 0.25 µg/mL; with Staph. aureus L 561, 8 µg/mL; against Staph. epidermidis L 147, 4 µg/mL; in the assay on Staph. epidermidis L 533, 8 µg/mL; in [12] it was 32 µg/mL; in the assay on Strep. pyogenes L 49 it was 0.13 µg/mL. Also, the MIC in the assay with Strep. pneumoniae L 44 was 0.06 µg/mL; with Entero. faecalis L 149, 0.13 µg/mL; against Entero. faecalis L 562 (Entero. faecalis L 562, Table II), over 128 µg/mL; against Entero. faecalis L 562 (Enterococcus faecalis L 562, Table III), over 128 µg/mL; with Neisseria gonorrh. L 997, 32 µg/mL; with Esch. coli L 47, over 128 µg/mL. Besides, the MIC against Pseudomonas aerug. L 4 is over 128 µg/mL; against Proteus vulgaris L 79, over 128 µg/mL; in [13], over 128 µg/mL; in assay [14] it was over 128 µg/mL; in assay [1] (Enterococcus faecium L 564, Table III) it was over 128 µg/mL; in assay [2] (Enterococcus faecium L 565, Table III) it was over 128 µg/mL. In addition, the MIC is over 128 µg/mL in [3] (Enterococcus faecium L 569, Table III); over 128 µg/mL in assay [4] (Enterococcus faecium L 1650, Table III); over 128 µg/mL in assay [5] (Enterococcus faecium L 1652, Table III); over 128 µg/mL in assay [6] (Enterococcus faecium L 1666, Table III); over 128 µg/mL in assay [7] (Enterococcus faecium L 1680, Table III); over 128 µg/mL in assay [8] (Enterococcus faecium L 1681, Table III). In addition, the MIC in [9] (Enterococcus faecium L 1683, Table III) is over 128 µg/mL; in assay [10] (Enterococcus faecium L 1686, Table III), over 128 µg/mL. In the assay with Strep. pyogenes C 203, the ED50 was determined as 0.16 mg/kg. The “in vitro activity / resistance in words” value in [11] was “highly resistant”.

Usually MIC stands for the lowest concentration that inhibits growth of the organism. What is called ED50 is the midpoint of the dose-response relation. Lower therefore signals greater potency.
